From publication PMC8228121, “Super-Cationic Peptide Dendrimers—Synthesis and Evaluation as Antimicrobial Agents” (Antibiotics, 2021) come the findings set out here.

Data set [1] has as its system S. aureus ATCC 29213. Nature of the data set: microbe, parasite or virus in culture. It counts as cell-based, Staphylococcus aureus. The note with it: ATCC 29213. As for the experimental part: (§1) Clinical isolates of CRE, MRSA and VRE were obtained from Lancet Laboratories, Durban, South Africa, with approval BE394/15 from the Biomedical Research Ethical Committee of the University of KwaZulu-Natal. Five reference strains of bacteria, namely Escherichia coli ATCC 25922, Pseudomonas aeruginosa ATCC 27853, Enterococcus faecium ATCC 35667, Staphylococcus aureus ATCC 29213 and Bacillus subtilis ATCC 6051 were supplied by the American Type Culture Collection (ATCC).
(§2) MIC values were determined by the broth microdilution method and the significance of the values obtained was interpreted following the guidelines of the Clinical and Laboratory Standards for Antimicrobial Susceptibility Testing.. The effect of human serum on the antimicrobial effect of the molecules tested was determined in a similar way to the MIC method used above in a solution of 50% human serum plus Mueller–Hinton broth.

The test system of data set [2] is B. subtilis ATCC 6051. Nature of the data set: microbe, parasite or virus in culture. It counts as cell-based, Bacillus subtilis. Conditions: ATCC 6051. The protocol:
as §1, §2

For data set [3], the system named is E. faecium ATCC 35667. Nature of the data set: microbe, parasite or virus in culture. Conditions: ATCC 35667. It counts as cell-based, Enterococcus faecium. The protocol: as §1, §2
The test system of data set [4] is E. coli ATCC 25822. Description: microbe, parasite or virus in culture. It counts as cell-based, Escherichia coli. The note with it: ATCC 25822. As for the experimental part: as §1, §2
Data set [5] concerns P. aeruginosa ATCC 27853. Nature of the data set: microbe, parasite or virus in culture. In kind it is cell-based, Pseudomonas aeruginosa. Conditions: ATCC 27853. As for the experimental part:
as §1, §2

In data set [6] the test system is MRSA (methicillin-resistant S. aureus) isolates. Nature of the data set: microbe, parasite or virus in culture. In kind it is cell-based. The note with it: methicillin-resistant ) isolates. The protocol:
as §1, §2

Data set [7] has as its system P. aeruginosa. Nature of the data set: Time–kill curves. The note with it: any concentration tested (MIC, ½ MIC, ¼ MIC). In kind it is cell-based. The protocol: Killing curve assays were performed with a starting inoculum of 6 × 10^6 CFU/mL. […] Antimicrobials were added to 5 mL of bacteria in the exponential phase of growth and incubated at 37 °C with shaking. Samples were obtained aseptically at 0, 1, 2, 4, 6 and 24 h, diluted in Ringer 1/4 and plated on TSA for colony counting. The response of microbial strains to a single antimicrobial was determined by lowering logarithms of viable bacteria. In accordance with Lora-Tamayo et al., an antimicrobial was considered active when a reduction of ≥1 log10 relative to the initial inoculum was observed.

The subject of data set [8] is E. coli. Nature of the data set: Effect on bacterial growth curves. It counts as cell-based. Conditions: irrespective of concentration (MIC, ½ MIC and ¼ MIC). As for the experimental part:
(§3) The study of the growth dynamic of the S. aureus, E. coli and P.aeruginosa strains against CAMPDs were assayed with a starting inoculum of 10^6–10^8 CFU/mL in a 10 mL specific falcon tube. The experiment was performed by a real-time reverse-spin bioreactor RTS-1 (Biosan SIA, Riga, Latvia) that applies non-invasive, mechanically driven rotation; thus, the cell suspension is mixed efficiently, mixing and oxygening the culture at 37 °C. Cell growth kinetics were recorded non-invasively in real time from data obtained from a near-infrared optical system, every 15 min.

Data set [9] relates to P. aeruginosa. Description: Effect on bacterial growth curves. In kind it is cell-based. The protocol:
as §3

Data set [10] relates to S. aureus. Description: Effect on bacterial growth curves. It counts as cell-based. The note with it: at MIC, ½ MIC and ¼ MIC. The protocol:
as §3

For data set [11], the system named is HEK293 cells.
Procedure: (§4) Cell viability was evaluated using the colorimetric MTT assay [21]. Human hepatocarcinoma (HepG2) cells and human embryonic kidney 293 (HEK-293) cells used in the drug toxicity assays were obtained from Cellonex (Johannesburg, South Africa). Viable HepG2 and HEK293 cells (20,000 cells/well) were seeded into a 96-well microtiter plate (200 µL) and allowed to attach overnight. The cells were exposed to varying concentrations of the peptides for 24 h. After removal of the treatment medium, 20 µL of MTT salt solution (5 mg/mL in 0.1M phosphate buffer saline (PBS)) and 100 µL of complete cell culture medium (CCM) were added to each well. After a 4 h (37 °C) incubation, the MTT salt solution was discarded and 100 μL of dimethyl sulphoxide (DMSO) were added to each well (1 h, 37 °C). The optical density of the solubilized formazan product was measured at 570 nm (reference λ of 690 nm) using a Bio-tek μQuant spectrophotometer (Winooski, VT, USA). […] GraphPad Prism (V5) (La Jolla, CA, USA) was used to obtain the half maximum inhibitory concentration (IC50) for each compound.
Data set [12] can be described thus: in vitro. The note with it: human.
Procedure: as §4

SMILES strings stand for the structures. Values after ≈ are worked out from the molar mass of the structure shown. Square brackets hold non-standard residues; d marks the D form. Side chains are listed from the residue outwards. Peptide text beside a SMILES is read from it. Orn = NCCC[C@H](N)C(=O)O

What is called IC50 is the midpoint of a concentration-inhibition curve. Read a low IC50 as higher potency.

As for `CC(C)C[C@H](NC(=O)[C@H](CC(C)C)NC(=O)[C@H](CCCN)NC(=O)[C@H](CC(C)C)NC(=O)[C@H](CC(C)C)NC(=O)[C@H](CCCCNC(=O)[C@H](CCCN)NC(=O)[C@H](CC(C)C)NC(=O)[C@@H](N)CCCN)NC(=O)[C@H](CCCN)NC(=O)[C@H](CC(C)C)NC(=O)[C@@H](N)CCCN)C(N)=O` [G1OLO-L2OL2, (OLO)2KLLOLL-NH2] (H-[Orn]L[Orn]K([Orn-Leu-Orn])LL[Orn]LL-NH2), the MBC in [1] is on record as 64 µg/mL (≈ 45.9 µM); in data set [2], 32 µg/mL (≈ 22.9 µM); in data set [3], 16 µg/mL (≈ 11.5 µM); in data set [4], 8 µg/mL (≈ 5.74 µM); in [5] it was 16 µg/mL (≈ 11.5 µM). Besides, the MIC in [1] amounted to 64 µg/mL (≈ 45.9 µM); in data set [2], 32 µg/mL (≈ 22.9 µM); in data set [3] it was 16 µg/mL (≈ 11.5 µM); in data set [4], 8 µg/mL (≈ 5.74 µM); in data set [5], 16 µg/mL (≈ 11.5 µM); in [6], 64 µg/mL (≈ 45.9 µM). Moreover, the “time–kill: effect on bacterial population” value in data set [7] was “had no effect at any concentration tested”. The figures for the “effect on growth curve” value in data set [8], in data set [9] (at ½ MIC or ¼ MIC) and in data set [10] were “abolished bacterial growth”, “no effect” and “negligible”, respectively. Moreover, the delay in growth entry in data set [9] (at the MIC) is “approximately 6 h”. The “toxicity (MTT)” value in [11] was “did not show toxicity”. In data set [12], half-maximal inhibition (IC50 at 24 h) was put at 470 µg/mL (≈ 337 µM).
